Values quoted from earlier work in patent US10136666B2, “Deep eutectic solvents and flavour generation” (NESTEC S.A., priority 2013, dated 2018).

Details: from literature values

NCCC(=O)O [β-alanine]
amount that would dissolve in 60 g water: about 33 g
